Results as given in patent US11166924B2, “N-methyl-d-aspartate receptor allosteric modulators and methods for their use” (Qingdao Primedicine Pharmaceutical Company, Ltd., priority 2016, dated 2021).

Assays:
[1] = target: T1, GluN1/GluN2A-containing NMDARs (Rattus norvegicus, UniProt P35439+Q00959); assay: Ca2+ influx assay (Fluo-4) in primary cultured rat neurons; format: cell-based
T1 construct: endogenous in cells; host or cells: primary rat cortical neurons, 12-14 days in culture
Experimental: Rat neurons isolated from the entire cortex were plated onto poly-d-lysine-coated 96-well plates. After 12-14 days in culture, the level of intracellular calcium was assayed using the Fluo-4 No Wash calcium assay kit according to the manufacturer's protocol (Thermo Fisher Scientific). In brief, the neuronal culture medium was removed and replaced with a calcium assay buffer (CAB) containing […], 20 mM HEPES, 2.5 mM probenacid, and Fluo4-NW dye mix (pH 7.4; Thermo Fisher Scientific). The cells were then incubated for 45 minutes at 37° C. for dye loading and then 15 minutes at 25° C. To isolate calcium signals mediated by NMDARs, NMDA was used as an agonist (10 μM), and 2 μM glycine were added. The antagonist […] was used to block the GluN1/GluN2A NMDARs. The calcium fluorescence measurement was performed at 25° C. after 60 seconds of recording with a FLEXStation II benchtop scanning fluorometer (Molecular Devices); then, the NMDAR agonist NMDA (10 μM)/glycine (2 μM) was added at 180 seconds. Fluorescence plate reading continued for a total of 30 mins with use of an excitation of 485 nm, an emission of 538 nm, and a cutoff of […]. The data were recorded using SoftMax Pro software (Molecular Devices). […]

[2] = test system: cortical neurons; assay: NMDA-induced excitotoxicity (LDH release) in cortical neurons; format: cell-based, rat; settings: in the absence of NVP-AAM007; FIG. 16
Experimental: Lactate dehydrogenase (LDH) is a cytoplasmic enzyme that can convert nicotinamide adenine dinucleotide (NAD) into NADH (the reduced form). LDH is released from cells into culture medium when the plasma membrane integrity is compromised. Therefore, the amount of released LDH represents the degree of cell death. In this study, the extracellular LDH level was measured using an in vitro toxicology assay kit obtained from Sigma-Aldrich (no. TOX-7). The basis of this LDH assay is as follows: (1) LDH reduces NAD into NADH, (2) the resulting NADH is then used in the stoichiometric conversion of a tetrazolium dye, and (3) the resulting colored compound is measured by a spectrophotometric microplate reader at a wavelength of 490 nm. The cell death rate was expressed as a ratio (%) between the absorbance of the treated group and that of the control group.
Cortical cultures were treated with Npam43, and assessed for NMDA-induced excitotoxicity after 20-24 hrs by measuring lactate dehydrogenase (LDH) release. […] LDH release was measured using an in vitro toxicology assay kit obtained from Sigma-Aldrich (no. TOX-7). The cell death rate was expressed as a ratio (%) between the absorbance of the treated group and that of the control group.

[3] = target: T2, GluN2A component of NMDAR currents in hippocampal slices (Mus musculus, UniProt P35436+P35438); assay: Slice recordings, GluN2A component of synaptic NMDAR currents; settings: FIG. 18
T2 construct: from tissue; host or cells: mouse hippocampal slices, CA1 pyramidal neurons
T2 sequence (P35436 23-1464, other chains not shown): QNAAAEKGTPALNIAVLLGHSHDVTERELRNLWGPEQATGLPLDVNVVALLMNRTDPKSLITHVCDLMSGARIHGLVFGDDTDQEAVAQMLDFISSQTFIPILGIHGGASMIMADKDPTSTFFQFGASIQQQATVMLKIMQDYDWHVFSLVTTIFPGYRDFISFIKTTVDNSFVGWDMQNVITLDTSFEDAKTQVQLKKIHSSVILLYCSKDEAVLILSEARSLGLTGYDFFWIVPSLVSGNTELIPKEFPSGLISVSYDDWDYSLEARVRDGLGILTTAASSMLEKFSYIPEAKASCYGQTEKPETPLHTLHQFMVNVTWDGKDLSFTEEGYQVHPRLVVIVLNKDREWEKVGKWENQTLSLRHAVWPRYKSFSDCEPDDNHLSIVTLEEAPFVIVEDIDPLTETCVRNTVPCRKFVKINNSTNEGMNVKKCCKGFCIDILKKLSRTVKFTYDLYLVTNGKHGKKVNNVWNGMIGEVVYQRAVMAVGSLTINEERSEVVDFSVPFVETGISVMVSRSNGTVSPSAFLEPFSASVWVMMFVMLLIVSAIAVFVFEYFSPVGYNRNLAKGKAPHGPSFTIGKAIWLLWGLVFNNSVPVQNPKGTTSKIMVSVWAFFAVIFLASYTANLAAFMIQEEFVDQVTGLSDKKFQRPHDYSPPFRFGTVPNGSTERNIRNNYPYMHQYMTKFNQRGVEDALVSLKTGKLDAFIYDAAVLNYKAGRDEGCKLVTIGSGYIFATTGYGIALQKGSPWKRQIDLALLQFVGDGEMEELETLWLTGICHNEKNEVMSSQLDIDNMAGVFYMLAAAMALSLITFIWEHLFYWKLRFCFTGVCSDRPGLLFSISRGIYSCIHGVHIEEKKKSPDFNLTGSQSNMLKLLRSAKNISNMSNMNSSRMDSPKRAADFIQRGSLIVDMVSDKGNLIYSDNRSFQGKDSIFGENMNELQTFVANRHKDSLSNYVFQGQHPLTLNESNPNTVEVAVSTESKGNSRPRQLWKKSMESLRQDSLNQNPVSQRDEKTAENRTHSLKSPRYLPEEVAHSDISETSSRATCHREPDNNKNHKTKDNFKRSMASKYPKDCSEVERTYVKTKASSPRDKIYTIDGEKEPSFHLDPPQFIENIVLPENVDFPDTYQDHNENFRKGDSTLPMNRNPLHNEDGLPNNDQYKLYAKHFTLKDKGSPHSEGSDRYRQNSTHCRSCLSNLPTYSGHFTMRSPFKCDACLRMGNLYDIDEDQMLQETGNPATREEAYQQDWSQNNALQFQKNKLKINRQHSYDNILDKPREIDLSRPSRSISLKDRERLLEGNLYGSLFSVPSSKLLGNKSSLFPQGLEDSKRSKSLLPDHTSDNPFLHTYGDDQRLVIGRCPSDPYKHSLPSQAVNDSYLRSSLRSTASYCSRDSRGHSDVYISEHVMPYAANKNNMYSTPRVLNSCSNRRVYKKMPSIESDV
Text: 6-8 week old C57/Bl6 mice or rats underwent cervical dislocation followed by decapitation. The brain was immediately transferred to an ice cold NMDG-based cutting solution consisting of: (in mM): 120 NMDG, 2.5 KCl, 1.2 NaH2PO4, 25 NaHCO3, 1.0 CaCl2, 7.0 MgCl2, 2.4 Na-pyruvate, 1.3 Na-ascorbate, 20 D-glucose with pH adjusted to 7.35 using HCl acid (unless stated, all chemicals and drugs were purchased from Sigma or BioShop, Canada). The hippocampus was dissected out and transverse hippocampal slices (400 μm) were obtained using a manual tissue chopper (Stoelting, Wood Dale, Ill., USA). Slices recovered in a heated (30° C.) incubating chamber for 1 hr which contained ACSF composed of (in mM): 124 NaCl, 3 KCl, 1.25 NaH2PO4, 1 MgSO47H2O, 2 CaCl2), 26 NaHCO3 and 15 D-glucose which was bubbled continuously with carbogen (95% O2/5% CO2) (pH to 7.3). After 30 additional minutes at room temperature, slices were transferred to a submerged recording chamber and were perfused continuously with carbogenated ACSF (2-3 ml/min). Whole-cell recordings of CA1 pyramidal neurons were performed using the “blind” method with a MultiClamp 700B amplifier. EPSCs (excitatory post synaptic currents) were elicited by stimulating the SC pathway. For isolation of NMDAR currents, cells were voltage clamped at +40 mV. […]

[4] = test system: pCREB; assay: pCREB levels in hippocampal and cortical tissue after i.v. injection; format: in vivo, rat; settings: 1 mg/kg i.v., 1 h post-treatment
Experimental: Brain tissues or cultured cells were lysed on ice in the lysis buffer and then the solution was centrifuged at 14,000 rpm for 10 min at 4° C. Next, the supernatant was collected and protein concentrations were determined using a BCA protein assay kit (Thermo Scientific, 23227). Equal amount of protein samples were mixed with 4 times sample buffer, boiled at 100° C. for 5 min, and separated on 10% sodium dodecyl sulphate-polyacrylamide gel electrophoresis (SDS-PAGE). Proteins were then transferred to Immobilon-PTM polyvynilidene fluoride (PVDF) membranes (Bio-Rad, 162-0177). The membranes were blocked with 5% non-fat milk in Tris-buffered saline containing 0.1% Tween-20 (TBST) for 1 hour at room temperature, and then incubated overnight at 4° C. with primary antibody. After washing 3×5 min in TBST, protein was visualized in the Bio-Rad Imager using ECL Western blotting substrate (Pierce, 32016). For the detection of phospho-CREB, samples prepared in the same day were used. The polyvinylidene difluoride membrane (Millipore, Bedford, Mass., USA) was incubated with primary antibody against phospho-CREB (Ser133) (Cell Signaling Technology, Beverly, Mass.). […] The band density of each protein was quantified by the Bio-Rad Quantity One software and the relative optical density was analyzed relative to loading total-CREB on the same membrane. […]

T1 sequence (Q00959 23-1464, other chains not shown): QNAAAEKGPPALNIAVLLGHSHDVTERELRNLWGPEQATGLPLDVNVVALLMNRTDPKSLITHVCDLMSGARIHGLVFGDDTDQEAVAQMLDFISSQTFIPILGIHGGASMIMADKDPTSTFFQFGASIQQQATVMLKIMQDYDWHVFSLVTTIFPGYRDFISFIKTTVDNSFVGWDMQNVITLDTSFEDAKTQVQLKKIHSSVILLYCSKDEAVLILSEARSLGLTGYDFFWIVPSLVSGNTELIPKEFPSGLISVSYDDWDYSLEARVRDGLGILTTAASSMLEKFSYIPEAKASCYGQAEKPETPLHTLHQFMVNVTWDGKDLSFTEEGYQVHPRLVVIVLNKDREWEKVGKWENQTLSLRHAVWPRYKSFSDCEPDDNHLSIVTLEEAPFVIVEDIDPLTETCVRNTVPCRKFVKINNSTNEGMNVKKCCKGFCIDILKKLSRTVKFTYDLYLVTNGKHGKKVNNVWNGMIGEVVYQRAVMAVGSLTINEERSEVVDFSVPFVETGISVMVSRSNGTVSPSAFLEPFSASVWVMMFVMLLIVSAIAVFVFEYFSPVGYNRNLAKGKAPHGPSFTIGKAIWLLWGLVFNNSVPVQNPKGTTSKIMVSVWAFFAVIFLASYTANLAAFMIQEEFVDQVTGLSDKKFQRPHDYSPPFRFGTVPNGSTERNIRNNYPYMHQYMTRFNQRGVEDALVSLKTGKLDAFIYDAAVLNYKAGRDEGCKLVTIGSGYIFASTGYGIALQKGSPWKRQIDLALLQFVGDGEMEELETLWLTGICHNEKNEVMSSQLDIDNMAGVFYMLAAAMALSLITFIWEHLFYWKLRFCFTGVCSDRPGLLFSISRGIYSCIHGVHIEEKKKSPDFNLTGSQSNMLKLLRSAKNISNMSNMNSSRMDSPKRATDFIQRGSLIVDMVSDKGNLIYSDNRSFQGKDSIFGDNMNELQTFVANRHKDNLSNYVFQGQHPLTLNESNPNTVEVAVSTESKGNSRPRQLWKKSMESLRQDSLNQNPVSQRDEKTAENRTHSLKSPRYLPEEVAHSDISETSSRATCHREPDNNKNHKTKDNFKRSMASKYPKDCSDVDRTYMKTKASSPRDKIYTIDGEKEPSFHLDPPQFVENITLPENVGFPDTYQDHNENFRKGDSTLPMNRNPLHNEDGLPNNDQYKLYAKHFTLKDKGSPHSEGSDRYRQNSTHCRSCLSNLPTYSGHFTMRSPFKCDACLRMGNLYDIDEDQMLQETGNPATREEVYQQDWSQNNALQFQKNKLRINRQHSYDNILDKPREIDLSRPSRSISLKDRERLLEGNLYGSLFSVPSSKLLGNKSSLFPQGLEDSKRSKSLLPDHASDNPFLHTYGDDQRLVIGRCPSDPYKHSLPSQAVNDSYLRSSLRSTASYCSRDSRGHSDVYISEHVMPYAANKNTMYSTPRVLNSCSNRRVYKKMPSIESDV

## CCOc1cc(Cl)c(Cl)c(/C=N/NC(=O)c2ccccc2Br)c1O [Npam43, (E)-2-bromo-N′-(2,3-dichloro-5-ethoxy-6-hydroxybenzylidene)benzohydrazide]
[1]; GluN2A antagonist co-applied
  Ca2+ influx in response to Npam43 with co-applied NVP-AAM0077: marked reduction of Ca^2+ influx
[1]; NMDA 10 μM, glycine 2 μM
  Ca2+ influx fluorescence signal: increased the Ca^2+ influx fluorescence signal
[2]
  NMDA-induced excitotoxicity: reduced
[3]
  Effect on GluN2A component of NMDAR currents: selectively potentiated the GluN2A component of NMDAR currents
[4]
  pCREB levels in hippocampal and cortical tissue: elevated
